Assay results from patent US20260042753A1 (Merck Patent GmbH, priority 2019, published 2026).
Like-named read-outs stand apart in the source and are kept apart here.

Tests used:
[1] = biological target: mutant cKIT (560-576 and V654A) in GIST430/654 cell line (Homo sapiens (Human), UniProt P10721, DEL560-576/V654A); assay: Cellular testing of cKIT mutant inhibitors: phospho-Y307-cKIT Luminex assay in GIST430/654 cells; assay type: cell-based; conditions: read-out: GIST 430/654 IC50
Procedure: Assay Principle for Cellular Testing of cKIT Mutant Inhibitors
The GIST430/654 cell line expressing mutated constitutively active cKIT receptor tyrosine kinase ([…]560-576 and V654A) was employed for assessing cellular potency of compounds. Cellular activity of mutant cKIT was determined by the degree of cKIT autophosphorylation at tyrosine 307 using a Luminex-based bead assay. GIST430/654 cells were plated with 25,000 cells per well of a 96-well plate in 100 μl medium (85% IMDM/15% FCS supplemented with 100 nM Imatinib). At the following day compounds were added in a serial dilution for 45 min. Then, cells were lysed with 90 μl lysis buffer (20 mM Hepes pH 7.5, 200 mM NaCl, 1.5 mM MgCl2×6H2O, 0.4 mM EDTA, 1% Triton-X-100, 1% Phosphatase-Inhibitor II, 20 mM D-Glycerolphosphat, 0.1% Protease-Inhibitor Cocktail III, 0.01% Benzonase) und lysates were cleared by centrifugation through a 96-well filter plate (0.65 μm). Samples were incubated with Luminex-beads which were coupled with an anti-total cKIT antibody overnight at 4° C. under gentle agitation. For detection of phospho-Y307-cKIT a phosphospecific antibody and a species-specific PE-labelled secondary antibody were added. The amount of phospho-Y307-cKIT was determined in a Luminex 200 instrument measuring 100 events per well within 60 seconds.
Counts from samples treated with compounds were calculated as percent of control from solvent treated (0.3% DMSO) samples. Dose-response curves were fitted and IC50 values were determined using Genedata Screener software.

c-Kit(V654A) = c-Kit(V654A) (Homo sapiens, UniProt P10721, V654A); assay: c-Kit(V654A) assay; assay type: biochemical
Procedure: c-Kit(V654A) (N-terminal GST-tagged, recombinant human c-Kit, amino acids 544-end containing the V654A mutation) is incubated with 8 mM MOPS pH 7.0, 0.2 mM EDTA, 250 μM GGMEDIYEFMGGKKK, 10 mM MgAcetate and [gamma-33P-ATP](specific activity approx. 500 cpm/pmol, concentration 200 μM). The reaction is initiated by the addition of the MgATP mix. After incubation for 40 minutes at room temperature, the reaction is stopped by the addition of 3% phosphoric acid solution. 10 μL of the reaction is then spotted onto a P30 filtermat and washed three times for 5 minutes in 75 mM phosphoric acid and once in methanol prior to drying and scintillation counting.

[2] = Table 1, cKIT autophosphorylation, compounds 45 min
[3] = Table 2, corresponding triazole derivatives
[4] = Table 2, isoxazole derivatives presently described

Sequence of mutant cKIT (560-576 and V654A) in GIST430/654 cell line (P10721 other isoform, or with tags, fused parts or gaps V654A/del 1-25/del 560-576 limits assumed): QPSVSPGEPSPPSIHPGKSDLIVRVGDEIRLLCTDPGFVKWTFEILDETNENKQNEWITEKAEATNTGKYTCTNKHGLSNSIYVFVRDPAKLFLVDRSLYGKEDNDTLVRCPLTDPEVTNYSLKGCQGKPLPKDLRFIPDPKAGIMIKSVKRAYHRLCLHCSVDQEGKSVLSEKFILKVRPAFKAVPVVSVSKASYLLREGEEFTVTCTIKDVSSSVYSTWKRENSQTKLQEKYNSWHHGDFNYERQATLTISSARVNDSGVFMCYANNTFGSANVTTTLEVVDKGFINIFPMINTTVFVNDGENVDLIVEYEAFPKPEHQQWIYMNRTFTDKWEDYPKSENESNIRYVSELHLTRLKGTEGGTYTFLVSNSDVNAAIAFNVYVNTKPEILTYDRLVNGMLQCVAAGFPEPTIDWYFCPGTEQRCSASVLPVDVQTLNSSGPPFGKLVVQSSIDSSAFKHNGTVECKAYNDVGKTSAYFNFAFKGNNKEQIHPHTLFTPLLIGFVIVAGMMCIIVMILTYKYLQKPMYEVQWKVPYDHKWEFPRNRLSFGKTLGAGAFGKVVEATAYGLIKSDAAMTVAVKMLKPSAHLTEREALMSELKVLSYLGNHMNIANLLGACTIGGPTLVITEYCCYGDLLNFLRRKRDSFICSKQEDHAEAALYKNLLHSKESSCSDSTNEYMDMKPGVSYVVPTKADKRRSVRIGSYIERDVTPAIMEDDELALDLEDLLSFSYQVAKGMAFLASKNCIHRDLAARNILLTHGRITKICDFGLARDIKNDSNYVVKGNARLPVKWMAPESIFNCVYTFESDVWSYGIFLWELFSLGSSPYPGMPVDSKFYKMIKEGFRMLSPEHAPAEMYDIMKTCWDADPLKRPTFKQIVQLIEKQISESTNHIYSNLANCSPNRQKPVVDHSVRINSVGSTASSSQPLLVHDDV

Compound | IC50 [1, 2] [µM] | IC50 (c-Kit(V654A); Table 1, 200 μM ATP) [µM] | further results
COCCOc1cc2[nH]nc(-c3cc(-c4ccc(C(=O)N5CCN(C)CC5CO)cc4)no3)c2cc1F (centres unmarked) [A54, [1-(4-{5-[5-fluoro-6-(2-methoxyethoxy)-1H-indazol-3-yl]-1,2-oxazol-3-yl}benzoyl)-4-methylpiperazin-2-yl]methanol] | 0.13 | 0.00073 | 
COCCOc1cc2[nH]nc(-c3cn(-c4ccc(C(=O)N5CC(N6CCOCC6)C5)c(C)c4)nn3)c2cc1F [reference compound] |  |  | IC50 [1, 3]: 0.87 µM; IC50 (c-Kit(V654A); [3]): 0.013 µM
COCCOc1cc2[nH]nc(-c3cc(-c4ccc(NC(C)=O)cc4)no3)c2cc1F [A18, N-(4-{5-[5-fluoro-6-(2-methoxyethoxy)-1H-indazol-3-yl]-1,2-oxazol-3-yl}phenyl)acetamide] | 0.16 | 0.0082 | 
COCCOc1cc2[nH]nc(-c3cc(-c4ccc(C(=O)N5C[C@H]6COC[C@H]6C5)c(F)c4)no3)c2cc1F [A71, (2-fluoro-4-{5-[5-fluoro-6-(2-methoxy-ethoxy)-1H-indazol-3-yl]-isoxazol-3-yl}-phenyl)-(cis)-tetrahydro-furo[3,4-c]pyrrol-5-yl-methanone] | 0.09 | 0.0043 | 
COCCOc1cc2[nH]nc(-c3cc(-c4ccc(C(=O)N5CCN(C)C[C@@H]5C)cc4)no3)c2cc1F [A3, 3-(3-{4-[(2S)-2,4-dimethylpiperazine-1-carbonyl]phenyl}-1,2-oxazol-5-yl)-5-fluoro-6-(2-methoxyethoxy)-1H-indazole] | 0.038 | 0.0014 | IC50 [1, 4]: 0.038 µM; IC50 (c-Kit(V654A); [4]): 0.0014 µM
COCCOc1cc2[nH]nc(-c3cc(-c4ccc(C(=O)N5CCN(C)CC5)cc4)no3)c2cc1F [A36, 5-fluoro-6-(2-methoxyethoxy)-3-{3-[4-(4-methylpiperazine-1-carbonyl)phenyl]-1,2-oxazol-5-yl}-1H-indazole] | 0.12 | 0.0012 | 
COCCOc1cc2[nH]nc(-c3cc(-c4ccc(N=S(C)(C)=O)cc4)no3)c2cc1F [A47, [(4-{5-[5-fluoro-6-(2-methoxyethoxy)-1H-indazol-3-yl]-1,2-oxazol-3-yl}phenyl)imino]dimethyl-lambda6-sulfanone] | 0.077 | 0.0024 | 
COCCOc1cc2[nH]nc(-c3cc(-c4ccc(C(=O)N5CC[C@@H](F)C5)cc4)no3)c2cc1F [A27, 5-fluoro-3-(3-{4-[(3R)-3-fluoropyrrolidine-1-carbonyl]phenyl}-1,2-oxazol-5-yl)-6-(2-methoxyethoxy)-1H-indazole] | 0.057 | 0.0012 | 
COCCOc1cc2[nH]nc(-c3cc(-c4ccc(C(=O)N5CCC[C@H]5CS(C)(=O)=O)cc4)no3)c2cc1F [A7, 5-fluoro-3-(3-{4-[(2S)-2-(methanesulfonylmethyl)pyrrolidine-1-carbonyl]phenyl}-1,2-oxazol-5-yl)-6-(2-methoxyethoxy)-1H-indazole] | 0.04 | 0.00075 | 
COCCOc1cc2[nH]nc(-c3cc(-c4ncc(C(=O)N5CC(F)C5)s4)no3)c2cc1F [A86, 5-fluoro-3-{3-[5-(3-fluoroazetidine-1-carbonyl)-1,3-thiazol-2-yl]-1,2-oxazol-5-yl}-6-(2-methoxyethoxy)-1H-indazole] |  | 0.069 | 
COCCOc1cc2[nH]nc(-c3cn(-c4ccc(C(=O)N5CCOCC5)cc4)nn3)c2cc1F [reference compound] |  |  | IC50 [1, 3]: 0.49 µM
COCCOc1cc2[nH]nc(-c3cc(-c4ccc(N5CCS(=O)(=O)CC5)cc4)no3)c2cc1F [A122, 4-(4-{5-[5-fluoro-6-(2-methoxyethoxy)-1H-indazol-3-yl]-1,2-oxazol-3-yl}phenyl)-1lambda6-thiomorpholine-1,1-dione] |  | 0.054 | 
COCCOc1cc2[nH]nc(-c3cn(-c4ccc(C(=O)N(C)C)cc4)nn3)c2cc1F [reference compound] |  |  | IC50 (c-Kit(V654A); [3]): 0.011 µM
COCCOc1cc2[nH]nc(-c3cc(-c4cncs4)no3)c2cc1F [A48, 5-fluoro-6-(2-methoxyethoxy)-3-[3-(1,3-thiazol-5-yl)-1,2-oxazol-5-yl]-1H-indazole] |  | 0.013 | 
COCCOc1cc2[nH]nc(-c3cc(-c4ncc(C(=O)N5CC(N6CCOCC6)C5)s4)no3)c2cc1F [A83, 5-fluoro-6-(2-methoxyethoxy)-3-(3-{5-[3-(morpholin-4-yl)azetidine-1-carbonyl]-1,3-thiazol-2-yl}-1,2-oxazol-5-yl)-1H-indazole] |  | 0.076 | 
COC(=O)c1ccc2c(-c3cc(-c4ccc(C(=O)N(C)C)cc4)no3)n[nH]c2c1 [A19, methyl 3-{3-[4-(dimethylcarbamoyl)phenyl]-1,2-oxazol-5-yl}-1H-indazole-6-carboxylate] |  | 0.0082 | 
CNC(=O)c1ccc2c(-c3cc(-c4ccc(C(=O)N(C)C)cc4)no3)n[nH]c2c1 [A24, 3-[3-(4-dimethylcarbamoyl-phenyl)-isoxazol-5-yl]-1H-indazole-6-carboxylic acid methylamide] |  | 0.088 | 

Now from value to compound, other results behind:

IC50 [1, 2] [µM] | IC50 (c-Kit(V654A); Table 1, 200 μM ATP) [µM] | Compound | further results
0.079 | 0.00067 | COCCOc1cc2[nH]nc(-c3cc(-c4ccc(C(=O)N5CC(O)(c6ccncc6)C5)cc4)no3)c2cc1F [A206, 1-(4-{5-[5-fluoro-6-(2-methoxyethoxy)-1H-indazol-3-yl]-1,2-oxazol-3-yl}benzoyl)-3-(pyridin-4-yl)azetidin-3-ol] | 
0.085 | 0.00035 | COCCOc1cc2[nH]nc(-c3cc(-c4ccc(N5CC[C@@H]6[C@H]5CCCN6C)cc4)no3)c2cc1F (relative stereo) [A124, 3-(3-{4-[(cis)-4-methyl-octahydro-1H-pyrrolo[3,2-b]pyridin-1-yl]phenyl}-1,2-oxazol-5-yl)-5-fluoro-6-(2-methoxyethoxy)-1H-indazole] | 
0.027 | 0.0011 | COCCOc1cc2[nH]nc(-c3cc(-c4ccc(C(=O)N5C[C@@H]6CN(C7COC7)C[C@@H]6C5)cc4)no3)c2cc1F [A216, 3-(3-{4-[(cis)-5-(oxetan-3-yl)-octahydropyrrolo[3,4-c]pyrrole-2-carbonyl]phenyl}-1,2-oxazol-5-yl)-5-fluoro-6-(2-methoxyethoxy)-1H-indazole] | 
0.021 | 0.00029 | COCCOc1cc2[nH]nc(-c3cc(-c4ccc(C(=O)N5CCC6(CCOCC6)C5)cc4)no3)c2cc1F [A159, 2-(4-{5-[5-fluoro-6-(2-methoxyethoxy)-1H-indazol-3-yl]-1,2-oxazol-3-yl}benzoyl)-8-oxa-2-azaspiro[4.5]decane] | 
0.062 | 0.0011 | COCCOc1cc2[nH]nc(-c3cc(-c4ccc(C(=O)N5CC(N6CCCC6)C5)cc4)no3)c2cc1F [A178, 5-fluoro-6-(2-methoxyethoxy)-3-(3-{4-[3-(pyrrolidin-1-yl)azetidine-1-carbonyl]phenyl}-1,2-oxazol-5-yl)-1H-indazole] | 
0.031 | 0.002 | COCCOc1cc2[nH]nc(-c3cc(-c4ccc(C(=O)N5CC(N6CCOC[C@H]6C)C5)cc4)no3)c2cc1F [A201, 5-fluoro-6-(2-methoxyethoxy)-3-[3-(4-{3-[(3R)-3-methylmorpholin-4-yl]azetidine-1-carbonyl}phenyl)-1,2-oxazol-5-yl]-1H-indazole] | 
0.052 | 0.00061 | COCCOc1cc2[nH]nc(-c3cc(-c4ccc(C5CCN(C)CC5(C)C)cc4)no3)c2cc1F (centres unmarked) [A231, 5-fluoro-6-(2-methoxy-ethoxy)-3-{3-[4-(1,3,3-trimethyl-piperidin-4-yl)-phenyl]-isoxazol-5-yl}-1H-indazole] | 
0.028 | 0.00076 | COCCOc1cc2[nH]nc(-c3cc(-c4ccc(C(=O)N5CC6(CCN(C7COC7)CC6)C5)cc4)no3)c2cc1F [A199, 2-(4-{5-[5-fluoro-6-(2-methoxyethoxy)-1H-indazol-3-yl]-1,2-oxazol-3-yl}benzoyl)-7-(oxetan-3-yl)-2,7-diazaspiro[3.5]nonane] | 
0.038 | 0.00039 | COCCOc1cc2[nH]nc(-c3cc(-c4ccc(N5CCCN(C)CC5)cc4)no3)c2cc1F [A123, 5-fluoro-6-(2-methoxyethoxy)-3-{3-[4-(4-methyl-1,4-diazepan-1-yl)phenyl]-1,2-oxazol-5-yl}-1H-indazole] | 
 | 0.027 | COCCOc1cc2[nH]nc(-c3cc(-c4ccc(OC)nc4)no3)c2cc1F [A130, 5-fluoro-6-(2-methoxy-ethoxy)-3-[3-(6-methoxy-pyridin-3-yl)-isoxazol-5-yl]-1H-indazole] | 
